The experiment has as its target SHP2 (Homo sapiens (Human), UniProt Q06124). Nature of the experiment: SHP2 Allosteric Inhibition Assay. The settings on record: 0.5 nM SHP2 activated with 0.5 μM peptide IRS1_pY1172(dPEG8)pY1222, surrogate substrate DiFMUP, fluorescence. The format is biochemical. From the text:
SHP2 Allosteric Inhibition Assay SHP2 is allosterically activated through binding of bis-tyrosyl-phorphorylated peptides to its Src Homology 2 (SH2) domains. The latter activation step leads to the release of the auto-inhibitory interface of SHP2, which in turn renders the SHP2 protein tyrosine phosphatase (PTP) active and available for substrate recognition and reaction catalysis. The catalytic activity of SHP2 was monitored using the surrogate substrate DiFMUP in a prompt fluorescence assay format. […] After 30-60 minutes incubation at 25° C., the surrogate substrate DiFMUP (Invitrogen, cat# D6567) was added to the reaction and incubated at 25° C. for 30 minutes. […] The inhibitor dose response curves were analyzed using normalized IC50 regression curve fitting with control based normalization.

Among the data in US10336774B2, “N-azaspirocycloalkane substituted N-heteroaryl compounds and compositions for inhibiting the activity of SHP2” (NOVARTIS AG, priority 2014, dated 2019) are IC50 values, retold here.

Molecules are shown by their SMILES.

The IC50 is the concentration needed to halve the response being measured.

SHP2, sequence (Q06124 whole entry): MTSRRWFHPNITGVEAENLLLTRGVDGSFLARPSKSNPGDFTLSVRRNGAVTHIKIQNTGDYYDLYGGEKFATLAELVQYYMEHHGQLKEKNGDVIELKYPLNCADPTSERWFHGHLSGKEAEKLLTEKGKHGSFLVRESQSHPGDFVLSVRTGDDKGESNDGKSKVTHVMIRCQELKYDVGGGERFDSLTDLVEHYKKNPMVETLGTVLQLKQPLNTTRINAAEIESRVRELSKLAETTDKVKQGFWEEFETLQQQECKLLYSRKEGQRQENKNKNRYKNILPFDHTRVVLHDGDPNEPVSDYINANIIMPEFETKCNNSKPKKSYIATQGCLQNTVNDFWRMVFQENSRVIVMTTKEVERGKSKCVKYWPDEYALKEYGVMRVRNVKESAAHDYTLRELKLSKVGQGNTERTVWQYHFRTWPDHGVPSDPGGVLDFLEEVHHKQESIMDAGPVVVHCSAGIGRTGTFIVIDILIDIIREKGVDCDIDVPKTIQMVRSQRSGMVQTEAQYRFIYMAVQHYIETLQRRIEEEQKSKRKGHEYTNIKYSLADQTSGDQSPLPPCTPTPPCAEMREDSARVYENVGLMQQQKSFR

Compound `Nc1nc(N2CCC3(CCC[C@H]3N)CC2)cnc1Sc1cccnc1Cl` [Example 29, (R)-8-(6-amino-5-((2-chloropyridin-3-yl)thio)pyrazin-2-yl)-8-azaspiro[4.5]decan-1-amine] registered an IC50 of 15 nM.
As for `C[C@@H]1OCC2(CCN(c3cnc(Sc4cc(N)nc(Cl)c4Cl)c(N)n3)CC2)[C@@H]1N` [Example 88], the figure is 4 nM; as for `COc1nccc(Sc2ncc(N3CCC4(CCC[C@H]4N)CC3)nc2N)c1Cl` [Example 78], 15 nM; as for `CO[C@@H]1C[C@@H](N)C2(CCN(c3cnc(Sc4ccnc(Cl)c4Cl)c(N)n3)CC2)C1` [Example 46], 38 nM.
For the compound `Nc1nc(N2CCC3(CCC[C@@H]3N)CC2)ncc1Sc1cccnc1C(F)(F)F` [Example 24, (S)-8-(4-amino-5-((2-(trifluoromethyl)pyridin-3-yl)thio)pyrimidin-2-yl)-8-azaspiro[4.5]decan-1-amine], inhibition was half-maximal at 2780 nM (IC50).
The figure for `CC(C)C(=O)O[C@@H]1C[C@@H](N)C2(CCN(c3cnc(Sc4ccnc(Cl)c4Cl)c(N)n3)CC2)C1` [Example 66] is 65 nM; for `CO[C@@H]1C[C@@H](N)C2(CCN(c3cnc(Sc4ccnc(N)c4Cl)c(N)n3)CC2)C1` [Example 45] it is 44 nM; for `Nc1nc(N2CCC3(CC2)CCC(F)(F)[C@@H]3N)cnc1Sc1cccnc1C(F)(F)F` (racemic) [Example 83a, (R) and (S)-8-(6-amino-5-((2-(trifluoromethyl)pyridin-3-yl)thio)pyrazin-2-yl)-2,2-difluoro-8-azaspiro[4.5]decan-1-amine] it is 882 nM.
The figure for `Nc1nc(N2CCC3(CC2)C[C@@H](O)C[C@H]3N)cnc1Sc1cccnc1C(F)(F)F` [Example 42] is 7 nM.
Turning to `Nc1nc(N2CCC3(CC[C@@H]3N)CC2)cnc1Sc1ccnc(Cl)c1Cl` [Example 31, (S)-7-(6-amino-5-((2,3-dichloropyridin-4-yl)thio)pyrazin-2-yl)-7-azaspiro[3.5]nonan-1-amine], the IC50 worked out at 28 nM.
Regarding `Nc1nc(N2CC3(CCC3N)C2)cnc1Sc1cccc(Cl)c1Cl` (racemic) [Example 8, 2-(6-amino-5-((2,3-dichlorophenyl)thio)pyrazin-2-yl)-2-azaspiro[3.3]heptan-5-amine], the half-maximal inhibitory concentration (IC50) came to 5360 nM.
Compound `Nc1nc(N2CCC3(CCC[C@H]3N)CC2)cnc1Sc1ccnc(Cl)c1Cl` [Example 30, (R)-8-(6-amino-5-((2,3-dichloropyridin-4-yl)thio)pyrazin-2-yl)-8-azaspiro[4.5]decan-1-amine] returned an IC50 of 3 nM.
`Nc1nc(N2CCC3(CC2)C[C@@H](O)C[C@H]3N)cnc1Sc1ccnc(N)c1Cl` [Example 41, (2R,4R)-4-amino-8-(6-amino-5-((2-amino-3-chloropyridin-4-yl)thio)pyrazin-2-yl)-8-azaspiro[4.5]decan-2-ol]: inhibition was half-maximal at 7 nM (IC50). Against the preceding compound, the IC50 is about 2.3-fold higher.
Take `Nc1nc(N2CCC3(CC2)C[C@H](O)C[C@H]3N)cnc1Sc1ccnc(Cl)c1Cl` [Example 57]: the IC50 is 3 nM.
Take `Nc1nc(N2CCC3(CC2)C(N)CCS3(=O)=O)cnc1-c1cccc(Cl)c1Cl` (centres unmarked) [Example 18]: the midpoint of inhibition, the IC50, lay at 3550 nM.
In turn, `C[C@@H]1C[C@@H](N)C2(CCN(c3cnc(Sc4ccnc(N)c4Cl)c(N)n3)CC2)C1` [Example 71, (1R,3S)-8-(6-amino-5-((2-amino-3-chloropyridin-4-yl)thio)pyrazin-2-yl)-3-methyl-8-azaspiro[4.5]decan-1-amine] yielded an IC50 of 5 nM. Compared with the last compound, the IC50 is about 710-fold lower.
`Nc1nc(N2CCC3(CC2)CC(F)(F)CC3N)cnc1Sc1cccnc1C(F)(F)F` (centres unmarked) [Example 47] displayed an IC50 of 21 nM.
`Nc1nc(N2CCC3(CC[C@@H]3N)CC2)cnc1Sc1cccnc1C(F)(F)F` [Example 20, (S)-7-(6-amino-5-((2-(trifluoromethyl)pyridin-3-yl)thio)pyrazin-2-yl)-7-azaspiro[3.5]nonan-1-amine] had an IC50 of 38 nM.
`Nc1cc(Sc2ncc(N3CCC4(CCC[C@H]4N)CC3)nc2N)c(Cl)c(Cl)n1` [Example 87] displayed an IC50 of 9.3 nM.
As for `Nc1nc(N2CCC3(CC2)COC[C@@H]3N)cnc1Sc1ccnc(N)c1Cl` [Example 53], the figure is 298 nM.
